Data on 7 compounds can be found in article PMC11111895, “Identification of a dCache-type chemoreceptor in Campylobacter jejuni that specifically mediates chemotaxis towards methyl pyruvate” (Frontiers in Microbiology, 2024).

Structures are written as SMILES. Where two headings read alike, the source gives them in different places.

The target in experiment [1] is Tlp11-LBD. Put plainly: Microscale thermophoresis (MST) of Tlp11-LBD. The conditions noted are these: for Kd: 250 nM protein. Format: binding, C. jejuni ATCC 33560. The method, then: The His-tag dye (MO-L018 RED-tris-NTA, NanoTemper, Germany) was adjusted to a final concentration of 25 nM and used to label the purified protein with a His-tag. The compound was diluted to a series of concentrations in phosphate-buffered saline ([Duan et al., 2023]) with 0.05% Tween 20 (PBS-T) buffer and mixed in a ratio of 1:1 with protein. The mixtures were loaded into capillaries (Monolith™ Series capillaries, NanoTemper) by means of capillary action. Thermophoresis was measured using a Monolith™ NT.115 (NanoTemper) instrument, with 40% excitation and 40% MST power configuration. The time-traces of changes in fluorescence, which reflected the thermophoretic movement of labeled protein affected by different concentrations of compound were recorded, and the dose–response curves were fitted with the ‘temperature jump and thermophoresis’ mode. Data analysis was performed using MO. Affinity Analysis version 2.3 (NanoTemper) and Prism version 8.0.2 (GraphPad Software, United States).
MST quantifies interaction affinities by detecting the direct movement of fluorescent molecules along temperature gradients in capillaries. Ligand binding changes the thermophoretic movement of proteins, which can be used to derive Kds, by sequentially scanning capillaries with different ligand concentrations. MST has been applied to the study of weak binding systems and validated to provide reliable results ([Linke et al., 2016]; [Gao et al., 2021]). […] We also tested the binding abilities of methyl pyruvate analogues to Tlp11-LBD using MST (Supplementary Table S3).
For orientation: MST reads how a fluorescent partner responds to local heating, with and without ligand.

The subject of experiment [2] is C. jejuni NCTC 11168ΩTlp11 cells. Type of experiment: cell-based, Campylobacter jejuni.
Experiment [3] deals with C. jejuni WT NCTC 11168 cells. Format: cell-based, Campylobacter jejuni.
The subject of experiment [4] is C. jejuni 11168ΩTlp11/ΔCheY. Type of experiment: cell-based, Campylobacter jejuni.
For experiment [5], the system named is Tlp11-LBD. More on the design: method as in Day et al., 2016. The note with it: ref Day et al., 2016; cited from earlier work.
Experiment [6] deals with H. pylori. Further details: method as in Matilla and Krell, 2023; Zhou et al., 2023. The note with it: increase from 25 upon combination with amoxicillin and clarithromycin, clinical studies, ref Matilla and Krell, 2023, Zhou et al.; cited from earlier work.
For experiment [7], the system named is C. jejuni ATCC 33560. Put plainly: Growth curves in Minimal Essential Medium. Type of experiment: cell-based, Campylobacter jejuni. The conditions noted are these: Minimal Essential Medium with fetal bovine serum, shaking; methyl pyruvate at concentrations above 1 mM. The method, then: The C. jejuni ATCC 33560, C. jejuni WT NCTC 11168 and 11168ΩTlp11 cells were grown on a MH agar plate overnight, at 37°C, under microaerobic conditions. The colonies were suspended in PBS ([Duan et al., 2023]), pH 7.2, inoculated into Minimal Essential Medium broth (Life Technologies) containing 10% fetal bovine serum to an initial OD600 of 0.01, and grown at 37°C, 100 rpm, under microaerobic conditions. When required, Minimal Essential Medium was supplemented with different concentrations of methyl pyruvate or pyruvate (both from Macklin, China).

Experiment [8] has as its system Tlp11[1-342]-Tar[200-553] (Tlp342Tar200). In words: Microfluidic chemotaxis of E. coli expressing hybrid chemoreceptor Tlp342Tar200. Format: cell-based, E. coli VS188. The conditions noted are these: for effect on chemotaxis towards methyl pyruvate of E. coli with Tlp342Tar200 / effect on responses to glucose of E. coli with Tlp342Tar200: cells incubated in 10 mM compound; for chemotactic response of E. coli expressing Tlp342Tar200 as the sole receptor: microfluidic device, 50 min. The protocol: The E. coli cells expressing hybrid chemoreceptor and GFP were grown in tryptone broth, up to an OD600 of 0.55, at 34°C, with shaking at 250 rpm. The cells were harvested by means of centrifugation at 5,000 rpm, washed twice with Tethering Buffer (10 mM KH2PO4, 10 mM K2HPO4, and 0.1 mM EDTA, pH 7.0), and resuspended in Tethering Buffer such that an OD600 of 5.5 was attained. The chemotactic responses of E. coli cells to the compounds were measured using a microfluidic device ([Si et al., 2012]). The collected E. coli cells were added to the sink pores of the device and allowed to freely diffuse into the observation channel for 40 min. Subsequently, the compound solution was added to the source pores, to establish a concentration gradient gradually in the observation channel of the device. Fluorescence intensity in the observation channel was detected using an LSM 800 laser scanning confocal microscope (Zeiss, Germany). Data were analyzed using ImageJ software.
To determine whether methyl pyruvate stimulates transmembrane signaling through Tlp11-LBD, we fused C. jejuni ATCC 33560 Tlp11-LBD with the cytoplasmic region of the E. coli chemoreceptor Tar to construct Tlp11-Tar hybrid chemoreceptors (Figure 3A). Five hybrid receptors with different fusion positions in the second transmembrane helix (TM2) were obtained: Tlp11[1-342]-Tar[200-553] (Tlp342Tar200), Tlp11[1-343]-Tar[200-553] (Tlp343Tar200), Tlp11[1-346]-Tar[204-553] (Tlp346Tar204), Tlp11[1-347]-Tar[204-553] (Tlp347Tar204), and Tlp11[1-348]-Tar[204-553] (Tlp348Tar204) (Supplementary Figure S5A). To verify the activities of these hybrid chemoreceptors, we expressed each protein as a chimera in green fluorescent protein (GFP)-labeled E. coli VS188 without any other chemoreceptors, such that each hybrid receptor served as the only chemoreceptor in the E. coli. […] These chemotactic responses triggered by glucose through the phosphotransferase system are independent of the chemoreceptor LBD ([Neumann et al., 2012]). […] Thus, we used this hybrid receptor for subsequent chemotaxis measurements.

[9] abbreviates: methyl pyruvate at pH 7.0, read-out: Kd of Tlp11-LBD binding.

In general, Kd refers to a measure of binding affinity in units of concentration. As for `CCOC(=O)C(C)=O` [ethyl pyruvate, Ethyl pyruvate], in experiment [1] (read-out: Kd of Tlp11-LBD binding), the Kd stood at 2360 ± 170 µM.
Regarding `O=CO` [formate], the chemotactic response entry in experiment [2] is “attractant response”; in experiment [3], “attractive response”; in experiment [4], “no chemotaxis”.
On to `O=C[C@H](O)[C@@H](O)[C@@H](O)[C@H](O)CO` [galactose], for which, in experiment [5], the “binding to Tlp11-LBD” value is recorded as “bound directly”.
As for `COc1ccc2[nH]c([S+]([O-])Cc3ncc(C)c(OC)c3C)nc2c1` (centres unmarked) [omeprazole], the “eradication rate of H. pylori” value in experiment [6] is recorded as 95%.
Regarding `CC(=O)C(=O)O` [pyruvate, Pyruvate], the “binding to Tlp11-LBD” value in experiment [1] (maximum concentration 2.5 mM) is “did not bind”. In addition, the “effect on growth of C. jejuni ATCC 33560” value in experiment [7] is “promotion of the growth”.
On to `c1ccc2ncccc2c1` [quinoline, Quinoline], for which the Kd in experiment [1] (setting [9]) was determined as 905 ± 180 µM. Further, in experiment [2], the chemotactic response entry was “neither WT NCTC 11168 nor 11168ΩTlp11 cells exhibited chemotaxis”. Further, the chemotactic response entry in experiment [3] is “neither WT NCTC 11168 nor 11168ΩTlp11 cells exhibited chemotaxis”. Also, in experiment [8], the “effect on chemotaxis towards methyl pyruvate of E. coli with Tlp342Tar200” value is given as “lost the chemotaxis towards methyl pyruvate”, the “effect on responses to glucose of E. coli with Tlp342Tar200” value was “not affected” and the “chemotactic response of E. coli expressing Tlp342Tar200 as the sole receptor” value is reported as “failed to elicit a chemotactic response”.
Regarding `Cc1ccccc1` [toluene, Toluene], the Kd in experiment [1] (setting [9]) is 844 ± 172 µM. The chemotactic response result in experiment [2] (11168ΩTlp11 cells, microfluidic device, 30 min) was “neither WT NCTC 11168 nor 11168ΩTlp11 cells exhibited chemotaxis”. For the same compound, the chemotactic response result in experiment [3] (WT NCTC 11168 cells, microfluidic device, 30 min) is given as “neither WT NCTC 11168 nor 11168ΩTlp11 cells exhibited chemotaxis”. In addition, in experiment [8], the “effect on chemotaxis towards methyl pyruvate of E. coli with Tlp342Tar200” value is listed as “lost the chemotaxis towards methyl pyruvate”, the “effect on responses to glucose of E. coli with Tlp342Tar200” value is listed as “not affected” and the “chemotactic response of E. coli expressing Tlp342Tar200 as the sole receptor” value was “failed to elicit a chemotactic response”.
